Test [1] concerns JAK1-dependent STAT6 phosphorylation downstream of IL-13 stimulation in TF-1 human erythroleukemia cells. Put plainly: JAK1 pathway assay in TF-1 cells (IL-13-pSTAT6, MSD). Format: cell-based. As to conditions: Homo sapiens, TF-1, TF-1 cells, read-out: IL13-pSTAT6 EC50_TF-1. In short, it runs like this:
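TF-1 cells are starved of GM-CSF overnight and run in serum-free medium, while BEAS-2B cells stay in complete growth medium. Inhibition of STAT6 phosphorylation is measured by MSD.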

In test [2] the target is isolated recombinant JAK2 kinase domain (Homo sapiens (Human), UniProt O60674). Put plainly: JAK2 enzyme assay (Caliper LabChip, peptide phosphorylation). Format: biochemical. As to conditions: 25 μM ATP.
Chain of isolated recombinant JAK2 kinase domain (O60674 849-1124): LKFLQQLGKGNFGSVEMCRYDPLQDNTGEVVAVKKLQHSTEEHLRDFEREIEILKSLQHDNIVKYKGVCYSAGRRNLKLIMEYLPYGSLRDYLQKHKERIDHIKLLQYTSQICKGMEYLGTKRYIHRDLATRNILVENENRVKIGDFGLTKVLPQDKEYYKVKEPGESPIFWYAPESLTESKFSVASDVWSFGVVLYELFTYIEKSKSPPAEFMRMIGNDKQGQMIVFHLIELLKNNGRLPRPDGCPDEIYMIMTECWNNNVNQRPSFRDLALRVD
For test [3], the target named is isolated recombinant JAK1 kinase domain (Homo sapiens (Human), UniProt P23458). Put plainly: JAK1 enzyme assay (Caliper LabChip, peptide phosphorylation). Type of test: biochemical. As to conditions: isolated recombinant JAK1 kinase domain, 25 μM ATP.
Chain of isolated recombinant JAK1 kinase domain (P23458 875-1153): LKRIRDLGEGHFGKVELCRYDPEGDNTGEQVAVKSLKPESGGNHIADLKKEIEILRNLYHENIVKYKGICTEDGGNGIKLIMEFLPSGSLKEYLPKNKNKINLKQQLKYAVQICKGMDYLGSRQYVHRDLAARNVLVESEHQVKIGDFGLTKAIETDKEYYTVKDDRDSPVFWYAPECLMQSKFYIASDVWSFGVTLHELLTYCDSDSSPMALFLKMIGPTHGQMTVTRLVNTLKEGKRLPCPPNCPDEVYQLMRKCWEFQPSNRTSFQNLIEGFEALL

Structures can show the parent of a compound that is named as a salt.

Turning to `O=C(Nc1cn(CC(=O)N2CC3(CCNC3)C2)nc1-c1cc(Cl)ccc1OC(F)F)c1cnn2cccnc12` [Example 220, N-[3-[5-chloro-2-(difluoromethoxy)phenyl]-1-[2-(2,7-diazaspiro[3.4]octan-2-yl)-2-oxo-ethyl]pyrazol-4-yl]pyrazolo[1,5-a]pyrimidine-3-carboxamide], the EC50 in test [1] is 1170 nM. The Ki – broadly, a dissociation constant, usually derived from enzyme kinetics or from competition with a known ligand – came to 2.71 nM in test [2] and 1.22 nM in test [3].
On to `CN(CCOc1ccc(Cl)cc1)C1CCN(C(=O)Cn2cc(NC(=O)c3cnn4cccnc34)c(-c3cc(Cl)ccc3OC(F)F)n2)CC1` [Example 107, N-[3-[5-chloro-2-(difluoromethoxy)phenyl]-1-[2-[4-[2-(4-chlorophenoxy)ethyl-methyl-amino]-1-piperidyl]-2-oxo-ethyl]pyrazol-4-yl]pyrazolo[1,5-a]pyrimidine-3-carboxamide], for which the EC50 in test [1] was found to be 17.6 nM. Besides, the Ki in test [2] worked out at 2.49 nM; in test [3], 0.97 nM.
`CN1C[C@@H]2CN(C(=O)Cn3cc(NC(=O)c4cnn5cccnc45)c(-c4cc(Cl)ccc4OC(F)F)n3)C[C@]2(c2ccccc2)C1` [Example 16, N-[1-[2-[(3aR,6aR)-2-methyl-3a-phenyl-3,4,6,6a-tetrahydro-1H-pyrrolo[3,4-c]pyrrol-5-yl]-2-oxo-ethyl]-3-[5-chloro-2-(difluoromethoxy)phenyl]pyrazol-4-yl]pyrazolo[1,5-a]pyrimidine-3-carboxamide]: in test [1], the EC50 came out at 8.1 nM. Further, the inhibitory constant (Ki) is 0.56 nM in test [2] and 0.62 nM in test [3].
Turning to `O=C(Nc1cn(CC(=O)N2CC[C@H]3CNC[C@H]3C2)nc1-c1cc(Cl)ccc1OC(F)F)c1cnn2cccnc12` [Example 21, N-[1-[2-[(3aS,7aR)-1,2,3,3a,4,6,7,7a-octahydropyrrolo[3,4-c]pyridin-5-yl]-2-oxo-ethyl]-3-[5-chloro-2-(difluoromethoxy)phenyl]pyrazol-4-yl]pyrazolo[1,5-a]pyrimidine-3-carboxamide], the EC50 in test [1] worked out at 3040 nM. For the same compound, the Ki in test [2] was found to be 1.16 nM; in test [3], 0.47 nM.
Consider `Nc1nn2cccnc2c1C(=O)Nc1cn([C@H]2CCNC2)nc1-c1cc(Cl)ccc1OC(F)F` [Example 186, 2-amino-N-[3-[5-chloro-2-(difluoromethoxy)phenyl]-1-[(3S)-pyrrolidin-3-yl]pyrazol-4-yl]pyrazolo[1,5-a]pyrimidine-3-carboxamide], for which the EC50 in test [1] came to 12.3 nM. Further, the Ki worked out at 0.2 nM in test [2] and 0.71 nM in test [3].
Regarding `O=C(Nc1cn(CC(=O)N2C[C@H]3CN(CC4CCN(C(=O)OCc5ccccc5)CC4)C[C@H]3C2)nc1-c1cc(Cl)ccc1OC(F)F)c1cnn2cccnc12` [Example 17, benzyl 4-[[(3aR,6aS)-5-[2-[3-[5-chloro-2-(difluoromethoxy)phenyl]-4-(pyrazolo[1,5-a]pyrimidine-3-carbonylamino)pyrazol-1-yl]acetyl]-1,3,3a,4,6,6a-hexahydropyrrolo[3,4-c]pyrrol-2-yl]methyl]piperidine-1-carboxylate], the EC50 in test [1] came to 80.9 nM. In addition, the Ki was 0.85 nM in test [2] and 0.71 nM in test [3].
In the case of `CC(C)N1C[C@H]2CN(C(=O)Cn3cc(NC(=O)c4cnn5cccnc45)c(-c4cc(Cl)ccc4OC(F)F)n3)C[C@H]2C1` [Example 12, N-[1-[2-[(3aS,6aR)-2-isopropyl-1,3,3a,4,6,6a-hexahydropyrrolo[3,4-c]pyrrol-5-yl]-2-oxo-ethyl]-3-[5-chloro-2-(difluoromethoxy)phenyl]pyrazol-4-yl]pyrazolo[1,5-a]pyrimidine-3-carboxamide], in test [1], the EC50 was 15 nM. The values for the Ki in test [2] and in test [3] were 1.17 nM and 1.3 nM, respectively.
Consider `CN(C)C(=O)CCCN(C)C1CCN(C(=O)Cn2cc(NC(=O)c3cnn4cccnc34)c(-c3cc(Cl)ccc3OC(F)F)n2)CC1` [Example 88, N-[3-[5-chloro-2-(difluoromethoxy)phenyl]-1-[2-[4-[[4-(dimethylamino)-4-oxo-butyl]-methyl-amino]-1-piperidyl]-2-oxo-ethyl]pyrazol-4-yl]pyrazolo[1,5-a]pyrimidine-3-carboxamide], for which the EC50 in test [1] is 299 nM. The Ki in test [2] was found to be 1.91 nM; in test [3] it was 1.72 nM.
Consider `CN1C[C@H]2CCN(C(=O)Cn3cc(NC(=O)c4cnn5cccnc45)c(-c4cc(Cl)ccc4OC(F)F)n3)C[C@H]2C1` [Example 25, N-[1-[2-[(3aR,7aS)-2-methyl-3,3a,4,6,7,7a-hexahydro-1H-pyrrolo[3,4-c]pyridin-5-yl]-2-oxo-ethyl]-3-[5-chloro-2-(difluoromethoxy)phenyl]pyrazol-4-yl]pyrazolo[1,5-a]pyrimidine-3-carboxamide], for which the EC50 in test [1] worked out at 121 nM. The Ki came to 1.61 nM in test [2] and 0.66 nM in test [3].
As for `O=C(Nc1sc(N2CC(N3CCCCC3)C2)nc1-c1cc(Cl)ccc1OC(F)F)c1cnn2cccnc12` [Example 195, N-[4-[5-chloro-2-(difluoromethoxy)phenyl]-2-[3-(1-piperidyl)azetidin-1-yl]thiazol-5-yl]pyrazolo[1,5-a]pyrimidine-3-carboxamide], the EC50 in test [1] was determined as 16.5 nM. Also, the Ki is 0.86 nM in test [2] and 1.36 nM in test [3].
The matching figures for `CN(C)C1CCN(C(=O)c2ccc(-n3cc(NC(=O)c4cnn5cccnc45)c(-c4cc(Cl)ccc4OC(F)F)n3)cc2)CC1` [Example 302, Pyrazolo[1,5-a]pyrimidine-3-carboxylic acid {3-(5-chloro-2-difluoromethoxy-phenyl)-1-[4-(4-dimethylamino-piperidine-1-carbonyl)-phenyl]-1H-pyrazol-4-yl}-amide hydrochloride]: 16.2 nM, 1.11 nM and 0.6 nM.
For `CN(Cc1ccc2ccccc2c1)C1CCN(C(=O)Cn2cc(NC(=O)c3cnn4cccnc34)c(-c3cc(Cl)ccc3OC(F)F)n2)CC1` [Example 130, N-[3-[5-chloro-2-(difluoromethoxy)phenyl]-1-[2-[4-[methyl(2-naphthylmethyl)amino]-1-piperidyl]-2-oxo-ethyl]pyrazol-4-yl]pyrazolo[1,5-a]pyrimidine-3-carboxamide], in that order: 32.3 nM, 2.91 nM and 1.1 nM.
For the compound `O=C(Nc1cn(CC(=O)N2CCC3(CCNC3)CC2)nc1-c1cc(Cl)ccc1OC(F)F)c1cnn2cccnc12` [Example 223, N-[3-[5-chloro-2-(difluoromethoxy)phenyl]-1-[2-(2,8-diazaspiro[4.5]decan-8-yl)-2-oxo-ethyl]pyrazol-4-yl]pyrazolo[1,5-a]pyrimidine-3-carboxamide], in test [1], the EC50 was found to be 187 nM. Also, the Ki came to 0.72 nM in test [2] and 0.44 nM in test [3].
As for `O=C(Nc1cn(CC(=O)N2C[C@H]3CN(CC4CC4)C[C@H]3C2)nc1-c1cc(Cl)ccc1OC(F)F)c1cnn2cccnc12` [Example 6, Cis-pyrazolo[1,5-a]pyrimidine-3-carboxylic acid {3-(5-chloro-2-difluoromethoxyphenyl)-1-[2-(5-cyclopropylmethylhexahydropyrrolo[3,4-c]pyrrol-2-yl)-2-oxoethyl]-1H-pyrazol-4-yl}amide], the EC50 in test [1] stood at 5.9 nM. The Ki in test [2] was 0.75 nM; in test [3], 0.71 nM.
The matching figures for `CN1CCC2(CCN(C(=O)Cn3cc(NC(=O)c4cnn5cccnc45)c(-c4cc(Cl)ccc4OC(F)F)n3)CC2)C1` [Example 224, N-[3-[5-chloro-2-(difluoromethoxy)phenyl]-1-[2-(2-methyl-2,8-diazaspiro[4.5]decan-8-yl)-2-oxo-ethyl]pyrazol-4-yl]pyrazolo[1,5-a]pyrimidine-3-carboxamide]: 19.3 nM, 1.47 nM and 0.56 nM.
For the compound `O=C(Nc1cn(CC(=O)N2CCC(N3Cc4ccc(Cl)cc4C3)CC2)nc1-c1cc(Cl)ccc1OC(F)F)c1cnn2cccnc12` [Example 135, N-[3-[5-chloro-2-(difluoromethoxy)phenyl]-1-[2-[4-(5-chloroisoindolin-2-yl)-1-piperidyl]-2-oxo-ethyl]pyrazol-4-yl]pyrazolo[1,5-a]pyrimidine-3-carboxamide], in test [1], the EC50 is 26.9 nM. In addition, the Ki was found to be 1.15 nM in test [2] and 0.52 nM in test [3].
On to `CCCCN(C)CC#Cc1nc(-c2cc(Cl)ccc2OC(F)F)c(NC(=O)c2cnn3cccnc23)s1` [Example 210, N-[2-[3-[butyl(methyl)amino]prop-1-ynyl]-4-[5-chloro-2-(difluoromethoxy)phenyl]thiazol-5-yl]pyrazolo[1,5-a]pyrimidine-3-carboxamide], for which the EC50 in test [1] came out at 240 nM. The Ki in test [2] was determined as 0.1 nM; in test [3], 0.16 nM.
As for `Nc1nn2cccnc2c1C(=O)Nc1cn(C2CCN(CCCN3CCCC3=O)CC2)nc1-c1cc(Cl)ccc1OC(F)F` [Example 146, 2-amino-N-[3-[5-chloro-2-(difluoromethoxy)phenyl]-1-[1-[3-(2-oxopyrrolidin-1-yl)propyl]-4-piperidyl]pyrazol-4-yl]pyrazolo[1,5-a]pyrimidine-3-carboxamide], in test [1], the EC50 was 3.9 nM. The inhibitory constant (Ki) in test [2] came to 0.13 nM; in test [3] it was 0.45 nM.
Consider `O=C(Nc1cn(CC(=O)N2CCC(NCCc3ccc(Cl)cc3)CC2)nc1-c1cc(Cl)ccc1OC(F)F)c1cnn2cccnc12` [Example 92, N-[3-[5-chloro-2-(difluoromethoxy)phenyl]-1-[2-[4-[2-(4-chlorophenyl)ethylamino]-1-piperidyl]-2-oxo-ethyl]pyrazol-4-yl]pyrazolo[1,5-a]pyrimidine-3-carboxamide], for which the EC50 in test [1] came to 55.6 nM. Moreover, the Ki came to 2.03 nM in test [2] and 0.92 nM in test [3].

Values taken from patent US9346815B2, “5-chloro-2-difluoromethoxyphenyl pyrazolopyrimidine compounds, compositions and methods of use thereof” (Genentech, Inc., priority 2014, dated 2016).
